Results as given in US7795237B2, “Pharmaceutical composition and process” (priority 2005, dated 2010).

Tests used:
[1] = Behaviour on exposure to water (gelling); type: physicochemical; settings: crystalline form exposed to water
hepatitis C virus (HCV) = assay: Viral load of patients infected with hepatitis C virus; type: in vivo

For `CC(C)C(=O)OC[C@@]1(N=[N+]=[N-])O[C@@H](n2ccc(N)nc2=O)[C@H](OC(=O)C(C)C)[C@@H]1OC(=O)C(C)C.Cl` [I, isobutyric acid (2R,3S,4R,5R)-5-(4-amino-2-oxo-2H-pyrimidin-1-yl)-2-azido-3,4-bis-iso-butyryloxy-tetrahydro-furan-2-ylmethyl ester; hydrochloride salt], the “gel formation when exposed to water” value [1] was “readily forms a gel when exposed to water” and the viral load (hepatitis C virus (HCV)) was “decrease the viral load”.
